# Results taken from BindingDB's records for PubMed 35707152 (Max Planck Institute of Colloids and Interfaces, 2022).
# Columns and labels:
# [1] = Binding affinity to DC-SIGN ECD (66 to 404 residue) (unknown origin) expressed in Escherichia coli BL21 assessed as dissociation constant by STD reporter assay based NMR spectroscopy analysis
# [2] = Binding affinity to N-terminal His-tagged DC-SIGN CRD (194 to 331 residues) (unknown origin) expressed in Escherichia coli BL21 assessed as dissociation constant by HSQC-NMR spectrum analysis
Compound,Kd [1],Kd [2]
CN(C)C(=O)c1ccc2c(=O)c(S(=O)(=O)c3ccccc3)c[nH]c2c1,300 µM,–
O=C(O)c1cnc2ccccc2c1O,2200 µM,–
O=C(O)c1c[nH]c2ccc(S(=O)(=O)N3CCCCC3)cc2c1=O,500 µM,–
CCOC(=O)c1cc(=O)c2cccc(C(=O)OCC)c2[nH]1,600 µM,–
CN(C)C(=O)c1c[nH]c2c(F)cccc2c1=O,300 µM,400 µM
CCOC(=O)c1c[nH]c2ccc(N(C)C)cc2c1=O,300 µM,–
CN(C)C(=O)c1c[nH]c2cc(N(C)C)ccc2c1=O,400 µM,500 µM
CCOC(=O)c1cc(=O)c2cccc(F)c2[nH]1,500 µM,400 µM
CN(C)C(=O)c1c[nH]c2ccc(F)cc2c1=O,2900 µM,–
CCOC(=O)c1c[nH]c2c(C(=O)OCC)cccc2c1=O,100 µM,–
O=c1c(S(=O)(=O)c2ccccc2)c[nH]c2cc(F)ccc12,1900 µM,–
CCOC(=O)c1cnc2ccccc2c1O,200 µM,200 µM
